Here are results for 1 compound from patent publication US20250034089A1, “TETRAHYDROCARBAZOLE COMPOUND, AND PHARMACEUTICAL COMPOSITION AND USE THEREOF” (NAIN BIOTECH (HANGZHOU) CO., LTD., priority 2021, published 2025).

Experiment [1] addresses T1, OCT4 protein (Homo sapiens, UniProt Q01860).
T1 construct: HeLa cell line 3A11 with endogenous high expression of OCT4; endogenous in cells; host or cells: HeLa cell line 3A11
The experiment can be described thus: Inhibitory effect on OCT4 protein in HeLa cells (Western blot). Type of experiment: cell-based. As to conditions: FIG. 2. An excerpt:
• 1) Cell source: HeLa cell line 3A11 with endogenous high expression of OCT4, constructed by the inventor's laboratory (Zhou Y et al. Endogenous authentic OCT4A proteins directly regulate FOS/AP-1 transcription in physiological cancer cells. Cell Death Dis. 2018, 9:585). • 2) Cell culture and passage: All of the above cells were adherently cultured in complete culture medium [to a 6-cm culture dish (#430166, Corning) or T75 culture bottle (#3276, Corning) containing DMEM high-sugar basal medium (#SH30243.01B, HyClone) was added a final concentration of 10% FBS (#1101-500, Shanghai Pufei) and Penicillin-Streptomycin dual antibody (#SV30010, HyClone)]. The culture dish (bottle) was placed in a cell culture incubator (#3111, Thermo Fisher Scientific) at 37° C., 5% CO2, and saturated humidity. […] The supernatant was discarded, and the cell clumps were resuspended with fresh complete culture medium, blown into single cells again, passaged and inoculated into new culture dishes (bottles) in a ratio of 1:3-1:6, the complete culture medium was supplemented, and then placed in a cell culture incubator at 37° C. and 5% CO2 for culture. • 3) Cell dosing treatment: The above-mentioned HeLa cells were digested, counted, and inoculated into each well of the 96 well cell culture plate (#3988, Corning) at a density of 5000 cells/200 μl culture medium. […]

In experiment [2] the test system is Huh7 cells. The experiment can be described thus: Tumor microspheres cultured in Huh7 cells. Type of experiment: cell-based, human. The settings on record: Huh7, 1 μM, 48 hours. On the procedure: • 1) Cell sources: cervical cancer cells HeLa and Caski, liver cancer cells Hep3B and Huh7 were all purchased from the Chinese Academy of Sciences cell bank (Shanghai). • 2) Tumor microsphere culture: The specific culture method for tumor microspheres can be found in the literature (Cheng J et al. Tryptophan derivatives regulate the transfer of Oct4 in stem-like cancer cells. Nat Commun. 2015, 6:7209). Each tumor cell was cultured separately in a medium containing 2% B27, 10 ng/ml BFGF, 5 ng/ml EGF, and 10 ng/ml LIF to form CSC rich tumor microspheres. • 3) Cell dosing treatment: HeLa cell lines and Huh7 cell lines were inoculated in a 6-well plate containing the aforementioned culture medium at a density of 200 cells per well, while Hep3B cell lines and Caski cell lines were inoculated in a 6-well plate containing the aforementioned culture medium at a density of 2000 cells per well. KZT-A5 or AH057 at concentrations of 1 μM or 10 μM was added, and the morphology of tumor microspheres was observed, photographed and recorded after 48 hours of treatment.

T1 sequence (Q01860 whole entry): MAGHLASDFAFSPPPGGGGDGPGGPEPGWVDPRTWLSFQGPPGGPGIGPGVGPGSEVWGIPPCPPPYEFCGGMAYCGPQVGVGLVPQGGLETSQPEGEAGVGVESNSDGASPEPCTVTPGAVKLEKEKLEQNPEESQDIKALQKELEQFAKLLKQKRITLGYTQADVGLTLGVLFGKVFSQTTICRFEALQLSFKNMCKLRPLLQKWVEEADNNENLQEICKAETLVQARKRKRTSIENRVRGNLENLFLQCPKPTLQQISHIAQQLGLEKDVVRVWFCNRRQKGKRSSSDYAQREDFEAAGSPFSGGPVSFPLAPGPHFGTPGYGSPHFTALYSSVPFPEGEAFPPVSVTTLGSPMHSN

On to `COc1cc(/C=C2\CCc3c([nH]c4ccc(C)cc34)C2=O)ccc1O` [KZT-A5], for which the “dose dependence of inhibition of OCT4 protein expression” value in experiment [1] (HeLa 3A11, 10 μM vs 100 μM) was “dose-dependently inhibit the expression of OCT4 protein”. In experiment [1] (HeLa cell line 3A11, 48-72 hours), the “inhibitory effect on OCT4 protein (downregulation)” value is “most significant effect in downregulating OCT4 protein”. Also, the “inhibitory effect on tumor microspheres compared with AH057” value in experiment [2] was “more significant inhibitory effect compared with the same concentration of AH057”.
